# In US8802661B2, “C-28 amides of modified C-3 betulinic acid derivatives as HIV maturation inhibitors” (priority 2010, dated 2014):
# Tested on: recombinant NL4-3 virus (Renilla luciferase in nef, Gag P373S)
# Test: HIV Cell Culture Assay (luciferase reporter virus in MT-2 cells)
# Assay type: cell-based
# Settings: NL43
# Method in brief: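 Cells grown in serum-supplemented RPMI were exposed to graded inhibitor concentrations during a 4-5 day infection. Antiviral effect was then derived from luminescence after adding a combined lysis and dual-luciferase substrate mixture to each well.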
row,SMILES,EC50 [nM]
1,"C=C(C)[C@@H]1CC[C@]2(C(=O)N[C@@H](C)C(=O)O)CC[C@]3(C)[C@H](CC[C@@H]4[C@@]5(C)CC=C(c6ccc(C(=O)O)cc6)C(C)(C)[C@@H]5CC[C@]43C)[C@@H]12 [Example 57, 4-((1R,3aS,5aR,5bR,7aR,11aS,11bR,13aR,13bR)-3a-((S)-1-carboxyethylcarbamoyl)-5a,5b,8,8,11a-pentamethyl-1-(prop-1-en-2-yl)-2,3,3a,4,5,5a,5b,6,7,7a,8,11,11a,11b,12,13,13a,13b-octadecahydro-1H-cyclopenta[a]chrysen-9-yl)benzoic acid]",700
2,"C=C(C)[C@@H]1CC[C@]2(C(=O)NCc3ccc(Cl)cc3)CC[C@]3(C)[C@H](CC[C@@H]4[C@@]5(C)CC=C(c6ccc(C(=O)O)cc6)C(C)(C)[C@@H]5CC[C@]43C)[C@@H]12 [Example 60, 4-((1R,3aS,5aR,5bR,7aR,11aS,11bR,13aR,13bR)-3a-(4-chlorobenzylcarbamoyl)-5a,5b,8,8,11a-pentamethyl-1-(prop-1-en-2-yl)-2,3,3a,4,5,5a,5b,6,7,7a,8,11,11a,11b,12,13,13a,13b-octadecahydro-1H-cyclopenta[a]chrysen-9-yl)benzoic acid]",48
3,"C=C(C)[C@@H]1CC[C@]2(C(=O)N3CCCC(C(=O)N(CC)CC)C3)CC[C@]3(C)[C@H](CC[C@@H]4[C@@]5(C)CC=C(c6ccc(C(=O)O)cc6)C(C)(C)[C@@H]5CC[C@]43C)[C@@H]12 (stereo partly drawn) [Example 11, 4-((1R,3aS,5aR,5bR,7aR,11aS,11bR,13aR,13bR)-3a-(3-(diethylcarbamoyl)piperidine-1-carbonyl)-5a,5b,8,8,11a-pentamethyl-1-(prop-1-en-2-yl)-2,3,3a,4,5,5a,5b,6,7,7a,8,11,11a,11b,12,13,13a,13b-octadecahydro-1H-cyclopenta[a]chrysen-9-yl)benzoic acid]",61
4,"CC(C)[C@@H]1CC[C@]2(C(=O)NCC[N+](C)(C)[O-])CC[C@]3(C)[C@H](CC[C@@H]4[C@@]5(C)CC=C(c6ccc(C(=O)O)cc6)C(C)(C)[C@@H]5CC[C@]43C)[C@@H]12 [Example 97, 2-((1S,3aS,5aR,5bR,7aR,11aS,11bR,13aR,13bR)-9-(4-carboxyphenyl)-1-isopropyl-5a,5b,8,8,11a-pentamethyl-2,3,3a,4,5,5a,5b,6,7,7a,8,11,11a,11b,12,13,13a,13b-octadecahydro-1H-cyclopenta[a]chrysene-3a-carboxamido)-N,N-dimethylethanamine oxide]",2.6

# Same assay, conditions: NL43, read-out: EC50 Group
row,SMILES,EC50 [nM]
1,"C=C(C)[C@@H]1CC[C@]2(C(=O)N[C@@H](CN(C)C)C(=O)O)CC[C@]3(C)[C@H](CC[C@@H]4[C@@]5(C)CC=C(c6ccc(C(=O)O)cc6)C(C)(C)[C@@H]5CC[C@]43C)[C@@H]12 [Example 65, 4-((1R,3aS,5aR,5bR,7aR,11aS,11bR,13aR,13bR)-3a-((S)-1-carboxy-2-(dimethylamino)ethylcarbamoyl)-5a,5b,8,8,11a-pentamethyl-1-(prop-1-en-2-yl)-2,3,3a,4,5,5a,5b,6,7,7a,8,11,11a,11b,12,13,13a,13b-octadecahydro-1H-cyclopenta[a]chrysen-9-yl)benzoic acid]",< 100
2,"C=C(C)[C@@H]1CC[C@]2(C(=O)NCCN(C)CCO)CC[C@]3(C)[C@H](CC[C@@H]4[C@@]5(C)CC=C(c6ccc(C(=O)O)cc6)C(C)(C)[C@@H]5CC[C@]43C)[C@@H]12 [Example 73, 4-((1R,3aS,5aR,5bR,7aR,11aS,11bR,13aR,13bR)-3a-(2-((2-hydroxyethyl)(methyl)amino)ethylcarbamoyl)-5a,5b,8,8,11a-pentamethyl-1-(prop-1-en-2-yl)-2,3,3a,4,5,5a,5b,6,7,7a,8,11,11a,11b,12,13,13a,13b-octadecahydro-1H-cyclopenta[a]chrysen-9-yl)benzoic acid]",< 100
3,"C=C(C)[C@@H]1CC[C@]2(C(=O)NCCN3CCS(=O)(=O)CC3)CC[C@]3(C)[C@H](CC[C@@H]4[C@@]5(C)CC=C(c6cc(F)c(C(=O)O)c(F)c6)C(C)(C)[C@@H]5CC[C@]43C)[C@@H]12 [Example 121, 4-((1R,3aS,5aR,5bR,7aR,11aS,11bR,13aR,13bR)-3a-((2-(1,1-dioxido-4-thiomorpholinyl)ethyl)carbamoyl)-1-isopropenyl-5a,5b,8,8,11a-pentamethyl-2,3,3a,4,5,5a,5b,6,7,7a,8,11,11a,11b,12,13,13a,13b-octadecahydro-1H-cyclopenta[a]chrysen-9-yl)-2,6-difluorobenzoic acid]",< 100
4,"C=CNC(=O)[C@]12CC[C@@H](C(=C)C)[C@@H]1[C@H]1CC[C@@H]3[C@@]4(C)CC=C(c5ccc(C(=O)O)cc5)C(C)(C)[C@@H]4CC[C@@]3(C)[C@]1(C)CC2 [Example 84, 4-((1R,3aS,5aR,5bR,7aR,11aS,11bR,13aR,13bR)-5a,5b,8,8,11a-pentamethyl-1-(prop-1-en-2-yl)-3a-(vinylcarbamoyl)-2,3,3a,4,5,5a,5b,6,7,7a,8,11,11a,11b,12,13,13a,13b-octadecahydro-1H-cyclopenta[a]chrysen-9-yl)benzoic acid]",< 100
5,"C=C(C)[C@@H]1CC[C@]2(C(=O)NCCC(=O)N3CCC(C(=O)O)CC3)CC[C@]3(C)[C@H](CC[C@@H]4[C@@]5(C)CC=C(c6ccc(C(=O)O)cc6)C(C)(C)[C@@H]5CC[C@]43C)[C@@H]12 [Example 49, 1-(3-((1R,3aS,5aR,5bR,7aR,11aS,11bR,13aR,13bR)-9-(4-carboxyphenyl)-5a,5b,8,8,11a-pentamethyl-1-(prop-1-en-2-yl)-2,3,3a,4,5,5a,5b,6,7,7a,8,11,11a,11b,12,13,13a,13b-octadecahydro-1H-cyclopenta[a]chrysene-3a-carboxamido)propanoyl)piperidine-4-carboxylic acid]",< 100
6,"C=C(C)[C@@H]1CC[C@]2(C(=O)NCCN3CCC(F)(F)CC3)CC[C@]3(C)[C@H](CC[C@@H]4[C@@]5(C)CC=C(c6ccc(C(=O)O)c(F)c6)C(C)(C)[C@@H]5CC[C@]43C)[C@@H]12 [Example 117, 4-((1R,3aS,5aR,5bR,7aR,11aS,11bR,13aR,13bR)-3a-(2-(4,4-difluoropiperidin-1-yl)ethylcarbamoyl)-5a,5b,8,8,11a-pentamethyl-1-(prop-1-en-2-yl)-2,3,3a,4,5,5a,5b,6,7,7a,8,11,11a,11b,12,13,13a,13b-octadecahydro-1H-cyclopenta[a]chrysen-9-yl)-2-fluorobenzoic acid]",< 100
7,"C=C(C)[C@@H]1CC[C@]2(C(=O)NCC(c3cccnc3)N(C)C)CC[C@]3(C)[C@H](CC[C@@H]4[C@@]5(C)CC=C(c6ccc(C(=O)O)cc6)C(C)(C)[C@@H]5CC[C@]43C)[C@@H]12 (stereo partly drawn) [Example 35, 4-((1R,3aS,5aR,5bR,7aR,11aS,11bR,13aR,13bR)-3a-(2-(dimethylamino)-2-(pyridin-3-yl)ethylcarbamoyl)-5a,5b,8,8,11a-pentamethyl-1-(prop-1-en-2-yl)-2,3,3a,4,5,5a,5b,6,7,7a,8,11,11a,11b,12,13,13a,13b-octadecahydro-1H-cyclopenta[a]chrysen-9-yl)benzoic acid]",< 100
8,"C=C(C)[C@@H]1CC[C@]2(C(=O)NCCNC(C)=O)CC[C@]3(C)[C@H](CC[C@@H]4[C@@]5(C)CC=C(c6ccc(C(=O)O)cc6)C(C)(C)[C@@H]5CC[C@]43C)[C@@H]12 [Example 30, 4-((1R,3aS,5aR,5bR,7aR,11aS,11bR,13aR,13bR)-3a-(2-acetamidoethylcarbamoyl)-5a,5b,8,8,11a-pentamethyl-1-(prop-1-en-2-yl)-2,3,3a,4,5,5a,5b,6,7,7a,8,11,11a,11b,12,13,13a,13b-octadecahydro-1H-cyclopenta[a]chrysen-9-yl)benzoic acid]",< 100
9,"C=C(C)[C@@H]1CC[C@]2(C(=O)NC(C)c3nnc(C)[nH]3)CC[C@]3(C)[C@H](CC[C@@H]4[C@@]5(C)CC=C(c6ccc(C(=O)O)cc6)C(C)(C)[C@@H]5CC[C@]43C)[C@@H]12 (stereo partly drawn) [Example 44, 4-((1R,3aS,5aR,5bR,7aR,11aS,11bR,13aR,13bR)-5a,5b,8,8,11a-pentamethyl-3a-(1-(5-methyl-4H-1,2,4-triazol-3-yl)ethylcarbamoyl)-1-(prop-1-en-2-yl)-2,3,3a,4,5,5a,5b,6,7,7a,8,11,11a,11b,12,13,13a,13b-octadecahydro-1H-cyclopenta[a]chrysen-9-yl)benzoic acid]",< 100
10,"C=C(C)[C@@H]1CC[C@]2(C(=O)NCCN(C)CC(=O)O)CC[C@]3(C)[C@H](CC[C@@H]4[C@@]5(C)CC=C(c6ccc(C(=O)O)cc6)C(C)(C)[C@@H]5CC[C@]43C)[C@@H]12 [Example 80, 4-((1R,3aS,5aR,5bR,7aR,11aS,11bR,13aR,13bR)-3a-(2-((carboxymethyl)(methyl)amino)ethylcarbamoyl)-5a,5b,8,8,11a-pentamethyl-1-(prop-1-en-2-yl)-2,3,3a,4,5,5a,5b,6,7,7a,8,11,11a,11b,12,13, 13a,13b-octadecahydro-1H-cyclopenta[a]chrysen-9-yl)benzoic acid]",< 100
11,"C=C(C)[C@@H]1CC[C@]2(C(=O)N(CCO)CCN(C)C)CC[C@]3(C)[C@H](CC[C@@H]4[C@@]5(C)CC=C(c6ccc(C(=O)O)cc6)C(C)(C)[C@@H]5CC[C@]43C)[C@@H]12 [Example 77, 4-((1R,3aS,5aR,5bR,7aR,11aS,11bR,13aR,13bR)-3a-((2-(dimethylamino)ethyl)(2-hydroxyethyl)carbamoyl)-5a,5b,8,8,11a-pentamethyl-1-(prop-1-en-2-yl)-2,3,3a,4,5,5a,5b,6,7,7a,8,11,11a,11b,12,13,13a,13b-octadecahydro-1H-cyclopenta[a]chrysen-9-yl)benzoic acid]",> 100
12,"C=C(C)[C@@H]1CC[C@]2(C(=O)NCCN(C)C)CC[C@]3(C)[C@H](CC[C@@H]4[C@@]5(C)CC=C(c6ccc(C(=O)O)c(F)c6)C(C)(C)[C@@H]5CC[C@]43C)[C@@H]12 [Example 104, 4-((1R,3aS,5aR,5bR,7aR,11aS,11bR,13aR,13bR)-3a-(2-(dimethylamino)ethylcarbamoyl)-5a,5b,8,8,11a-pentamethyl-1-(prop-1-en-2-yl)-2,3,3a,4,5,5a,5b,6,7,7a,8,11,11a,11b,12,13,13a,13b-octadecahydro-1H-cyclopenta[a]chrysen-9-yl)-2-fluorobenzoic acid]",< 100
